In patent US20200108008A1, “OLAPARIB ORAL SUSTAINED AND CONTROLLED RELEASE PHARMACEUTICAL COMPOSITION AND USES THEREOF” (SHANGHAI INSTITUTE OF MATERIA MEDICA, CHINESE ACADEMY OF …, priority 2016, published 2020):

Assay: Dissolution of olaparib solid dispersion versus olaparib compound powder in water under sink conditions
Format: physicochemical
Conditions: 37° C., 100 rpm
Procedure: A solid dispersion was prepared from Olaparib and copolyvidone VA64 by solvent evaporation. That is, olaparib and copolyvidone VA64 were simultaneously dissolved in ethanol/acetone (25/75, v/v), evaporated off the organic solvent under reduced pressure, dried in a vacuum drying oven, and ground and pulverized through a 60 mesh screen to be ready for tableting. For the obtained solid dispersion, in water under sink conditions at 37° C. and 100 rpm, the pharmaceutically active ingredient was dissolved out 90% or more in 30 min. However, under the same conditions, the olaparib compound powder was dissolved out less than 60% in 2h.

**Q.** For `O=C(c1cc(Cc2n[nH]c(=O)c3ccccc23)ccc1F)N1CCN(C(=O)C2CC2)CC1` [olaparib compound powder, 1-(cyclopropylcarboxyl)-4-[5-[(3,4-dihydro-4-oxo-1-phthalazinyl)methyl]-2-fluorobenzoyl]piperazine], which “dissolved out in 2h” value is on record?
**A.** less than 60%
